Reference: US10526309B2, “Pan-TAM inhibitors and Mer/Axl dual inhibitors” (The University of North Carolina at Chapel Hill, priority 2015, dated 2020)
Where two headings read alike, the source gives them in different places.

Assays:
Assay type in all cases: biochemical
[1] = target: T1, Mer (Homo sapiens, UniProt Q12866); test: Mer kinase inhibition IC50; conditions: read-out: Mer IC50
T1 sequence (Q12866 21-999): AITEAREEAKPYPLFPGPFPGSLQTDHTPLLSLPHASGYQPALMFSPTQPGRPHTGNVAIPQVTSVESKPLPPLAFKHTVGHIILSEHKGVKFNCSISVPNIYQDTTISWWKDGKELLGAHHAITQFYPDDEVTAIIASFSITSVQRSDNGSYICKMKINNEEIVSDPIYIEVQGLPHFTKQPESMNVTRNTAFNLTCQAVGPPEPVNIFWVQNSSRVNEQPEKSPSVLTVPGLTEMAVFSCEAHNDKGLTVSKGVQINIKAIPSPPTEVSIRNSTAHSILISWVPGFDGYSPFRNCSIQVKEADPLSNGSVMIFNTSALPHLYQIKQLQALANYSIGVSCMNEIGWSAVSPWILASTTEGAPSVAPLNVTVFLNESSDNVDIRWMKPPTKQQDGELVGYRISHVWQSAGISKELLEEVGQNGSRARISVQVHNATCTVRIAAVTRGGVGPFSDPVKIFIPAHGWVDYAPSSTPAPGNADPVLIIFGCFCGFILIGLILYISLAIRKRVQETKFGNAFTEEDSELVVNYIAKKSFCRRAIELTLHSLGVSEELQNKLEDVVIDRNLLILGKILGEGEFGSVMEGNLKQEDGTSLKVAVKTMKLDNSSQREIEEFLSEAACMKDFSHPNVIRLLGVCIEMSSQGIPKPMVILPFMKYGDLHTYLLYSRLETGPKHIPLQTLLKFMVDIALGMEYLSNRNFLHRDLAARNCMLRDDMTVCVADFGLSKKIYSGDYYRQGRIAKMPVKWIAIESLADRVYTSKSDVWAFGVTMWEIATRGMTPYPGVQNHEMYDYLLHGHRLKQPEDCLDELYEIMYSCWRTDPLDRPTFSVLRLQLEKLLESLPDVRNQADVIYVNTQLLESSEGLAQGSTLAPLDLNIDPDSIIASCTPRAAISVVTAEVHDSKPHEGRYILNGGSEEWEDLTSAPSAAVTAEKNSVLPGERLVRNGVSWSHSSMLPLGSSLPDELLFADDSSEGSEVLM

[2] = target: T2, Axl (Homo sapiens, UniProt P30530); test: Axl kinase inhibition IC50
T2 sequence (P30530 26-894): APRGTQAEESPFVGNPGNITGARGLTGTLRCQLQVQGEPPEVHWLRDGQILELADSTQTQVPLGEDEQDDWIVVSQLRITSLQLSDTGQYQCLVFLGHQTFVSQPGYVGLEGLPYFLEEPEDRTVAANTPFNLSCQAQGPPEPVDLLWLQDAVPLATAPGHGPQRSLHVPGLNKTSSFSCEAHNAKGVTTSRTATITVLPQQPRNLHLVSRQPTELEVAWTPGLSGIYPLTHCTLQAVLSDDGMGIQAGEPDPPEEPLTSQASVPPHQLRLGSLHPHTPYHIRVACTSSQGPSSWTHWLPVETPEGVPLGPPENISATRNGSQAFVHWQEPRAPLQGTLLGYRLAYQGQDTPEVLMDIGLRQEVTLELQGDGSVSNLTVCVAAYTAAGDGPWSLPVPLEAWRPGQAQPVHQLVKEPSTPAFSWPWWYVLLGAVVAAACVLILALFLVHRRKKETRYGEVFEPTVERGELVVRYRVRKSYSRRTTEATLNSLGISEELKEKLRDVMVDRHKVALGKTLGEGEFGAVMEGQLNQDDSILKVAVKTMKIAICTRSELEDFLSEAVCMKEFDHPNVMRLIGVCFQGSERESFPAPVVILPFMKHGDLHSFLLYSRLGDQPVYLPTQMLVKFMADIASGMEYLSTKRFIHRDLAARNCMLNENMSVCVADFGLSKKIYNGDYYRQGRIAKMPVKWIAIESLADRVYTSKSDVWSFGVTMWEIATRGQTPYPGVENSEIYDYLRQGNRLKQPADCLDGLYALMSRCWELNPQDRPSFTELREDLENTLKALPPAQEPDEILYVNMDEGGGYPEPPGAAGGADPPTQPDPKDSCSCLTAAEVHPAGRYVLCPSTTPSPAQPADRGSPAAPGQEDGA

[3] = target: T3, Tyro3 (Homo sapiens, UniProt Q06418); test: Tyro3 kinase inhibition IC50
T3 sequence (Q06418 41-890): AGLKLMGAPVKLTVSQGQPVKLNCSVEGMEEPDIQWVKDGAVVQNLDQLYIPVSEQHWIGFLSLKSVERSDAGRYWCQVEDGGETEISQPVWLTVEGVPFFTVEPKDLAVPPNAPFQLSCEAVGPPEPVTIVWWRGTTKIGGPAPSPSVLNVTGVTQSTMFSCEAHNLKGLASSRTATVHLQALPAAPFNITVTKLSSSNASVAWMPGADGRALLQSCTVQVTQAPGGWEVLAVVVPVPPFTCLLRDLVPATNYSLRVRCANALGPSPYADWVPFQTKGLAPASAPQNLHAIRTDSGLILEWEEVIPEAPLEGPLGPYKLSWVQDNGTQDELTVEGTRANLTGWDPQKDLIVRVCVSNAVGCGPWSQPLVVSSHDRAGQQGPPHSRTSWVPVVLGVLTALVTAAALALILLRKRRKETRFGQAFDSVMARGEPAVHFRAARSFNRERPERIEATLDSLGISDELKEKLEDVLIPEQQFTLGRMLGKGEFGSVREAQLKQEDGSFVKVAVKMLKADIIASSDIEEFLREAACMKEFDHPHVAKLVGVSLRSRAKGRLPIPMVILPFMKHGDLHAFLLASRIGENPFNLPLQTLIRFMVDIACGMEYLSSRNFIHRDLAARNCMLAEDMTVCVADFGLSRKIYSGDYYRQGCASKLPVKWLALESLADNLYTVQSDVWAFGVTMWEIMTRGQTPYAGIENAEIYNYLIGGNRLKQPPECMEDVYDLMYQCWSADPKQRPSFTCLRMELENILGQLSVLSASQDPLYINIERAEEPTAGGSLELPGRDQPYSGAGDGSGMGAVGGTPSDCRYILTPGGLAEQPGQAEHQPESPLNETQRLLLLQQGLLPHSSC

Row | SMILES | IC50 ([1]; Table 2) | IC50 ([1]; Table 3) | IC50 ([2]; Table 3) | IC50 ([3]; Table 3, read-out: Tyro3 IC50) | also measured
1 | O[C@H]1CC[C@H](Nc2nc(Nc3ccc(C4=CCCNC4)cc3)ncc2-c2ccccn2)CC1 [UNC5113A] | 10 to 100 nM | – | – | – | IC50 ([2]; Table 2): 100 to 1000 nM; IC50 ([3]; Table 2, read-out: Tyro3 IC50): 100 to 1000 nM
2 | O[C@H]1CC[C@H](Nc2nc(Nc3ccc(C4CCNCC4)cc3)ncc2-c2ccccn2)CC1 [UNC5128A] | 100 to 1000 nM | – | – | – | IC50 ([2]; Table 2): 1000 to 30000 nM; IC50 ([3]; Table 2, read-out: Tyro3 IC50): 100 to 1000 nM
3 | O[C@H]1CC[C@H](Nc2nc(Nc3ccc(C#Cc4cc(-c5ncc[nH]5)ccn4)cc3)ncc2-c2ccccn2)CC1 [UNC4357A] | – | – | – | – | IC50 ([1]; Table 4): 100 to 1000 nM; IC50 ([2]; Table 4): 1000 to 30000 nM; IC50 ([3]; Table 4, read-out: Tryo3 IC50): 100 to 1000 nM
4 | CC(C)C(=O)Nc1ccnc(C#Cc2ccc(Nc3ncc(-c4ccccn4)c(N[C@H]4CC[C@H](O)CC4)n3)cc2)c1 [UNC4042A] | – | < 10 nM | < 10 nM | < 10 nM | –
5 | O[C@H]1CC[C@H](Nc2nc(Nc3ccc(C#Cc4cc(-c5cncnc5)ccn4)cc3)ncc2-c2ccccn2)CC1 [UNC4362A] | – | – | – | – | IC50 ([1]; Table 4): 10 to 100 nM; IC50 ([2]; Table 4): 100 to 1000 nM; IC50 ([3]; Table 4, read-out: Tryo3 IC50): 100 to 1000 nM
6 | CCNC(=O)c1ccnc(C#Cc2ccc(Nc3ncc(-c4ccccn4)c(N[C@H]4CC[C@H](O)CC4)n3)cc2)c1 [UNC3458A] | – | < 10 nM | < 10 nM | < 10 nM | –
7 | O[C@H]1CC[C@H](Nc2nc(Nc3ccc(C#Cc4cc(-c5ccn[nH]5)ccn4)cc3)ncc2-c2ccccn2)CC1 [UNC4360A] | – | – | – | – | IC50 ([1]; Table 4): 100 to 1000 nM; IC50 ([2]; Table 4): 1000 to 30000 nM; IC50 ([3]; Table 4, read-out: Tryo3 IC50): 100 to 1000 nM
8 | O=S(=O)(c1ccc(-c2cnc(Nc3ccc(C#Cc4cc(C5OCCO5)ccn4)cc3)nc2N[C@H]2CC[C@H](O)CC2)nc1)N1CCOCC1 [UNC3619A] | – | < 10 nM | 100 to 1000 nM | < 10 nM | –
9 | CC(C)C(=O)Nc1ccnc(C#Cc2ccc(Nc3ncc(-c4ccc(CN5CCN(C)CC5)cc4)c(N[C@H]4CC[C@H](O)CC4)n3)cc2)c1 [UNC3870A] | – | < 10 nM | < 10 nM | < 10 nM | –
10 | CN1CCN(Cc2ccc(-c3cnc(Nc4ccc(C#Cc5cc(NC(=O)C6CCC6)ccn5)cc4)nc3N[C@H]3CC[C@H](O)CC3)cc2)CC1 [UNC3871A] | – | < 10 nM | 10 to 100 nM | < 10 nM | –
11 | CC(C)C(=O)Nc1ccnc(C#Cc2ccc(Nc3ncc(-c4ccc(CN5CCN(C)CC5)cc4)c(N[C@H]4CC[C@H](O)CC4)n3)c(Cl)c2)c1 [UNC4046A] | – | 10 to 100 nM | < 10 nM | 10 to 100 nM | –
12 | CN1CCN(Cc2ccc(-c3cnc(Nc4ccc(C#Cc5cc(C6OCCO6)ccn5)cc4)nc3N[C@H]3CC[C@H](O)CC3)cc2)CC1 [UNC3437A] | – | 10 to 100 nM | 100 to 1000 nM | – | –
13 | O[C@H]1CC[C@H](Nc2nc(Nc3ccc(C4=CCNCC4)cc3)ncc2-c2ccccn2)CC1 [UNC4402A] | 100 to 1000 nM | – | – | – | IC50 ([2]; Table 2): 1000 to 30000 nM; IC50 ([3]; Table 2, read-out: Tyro3 IC50): 100 to 1000 nM
14 | CN1CCCC(c2ccc(Nc3ncc(-c4ccccn4)c(N[C@H]4CC[C@H](O)CC4)n3)cc2)C1 (stereo partly drawn) [UNC5131A] | 10 to 100 nM | – | – | – | IC50 ([2]; Table 2): 100 to 1000 nM; IC50 ([3]; Table 2, read-out: Tyro3 IC50): 100 to 1000 nM
15 | CN1CCN(Cc2ccc(-c3ccc(Nc4ncc(-c5ccccn5)c(N[C@H]5CC[C@H](O)CC5)n4)cc3)cc2)CC1 [UNC4437A] | 100 to 1000 nM | – | – | – | –
